The pEC50 is the negative decadic logarithm of the EC50, by convention in mol/L. A low value points to a high EC50.

pEC50: −log10 of the molar value.

The first experiment has as its target T1, Bcl-2-related protein A1 (Homo sapiens, UniProt Q16548).
T1 sequence (Q16548 whole entry): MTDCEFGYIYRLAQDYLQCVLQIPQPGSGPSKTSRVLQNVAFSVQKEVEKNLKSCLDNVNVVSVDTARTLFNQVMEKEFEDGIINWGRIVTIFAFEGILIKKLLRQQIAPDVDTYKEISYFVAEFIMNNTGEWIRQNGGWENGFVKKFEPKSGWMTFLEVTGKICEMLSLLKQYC
The experiment in a line: Bfl-1/Bim complex disruptors – biochemical, multiplexed, bead-based flow cytometry, HTS hits, confirmation (AID 2080).
Details: not given
With `O=C1C(Cl)=C(N2CCN(c3ccccc3[N+](=O)[O-])CC2)C(=O)c2ccccc21`, the pEC50 was 5.57.
`O=c1[nH]c(O)c(Cc2ccc(-c3cc(Cl)ccc3[N+](=O)[O-])o2)c(=O)[nH]1` showed a pEC50 of 6.09.
As to `O=C(NCc1ccccc1)c1ccc2nc(-c3ccco3)c(-c3ccco3)nc2c1` [2,3-bis(furan-2-yl)-N-(phenylmethyl)quinoxaline-6-carboxamide], the pEC50 is 5.09.
Compound `Cc1nnc(Sc2cc(NCCO)c([N+](=O)[O-])c3nonc23)s1` [2-[[7-[(5-methyl-1,3,4-thiadiazol-2-yl)thio]-4-nitro-2,1,3-benzoxadiazol-5-yl]amino]ethanol] showed a pEC50 of 6.09.
For the compound `Cc1ccc(-c2cc(-c3ccc(C)o3)nc(N)c2C#N)cc1` [2-amino-6-(5-methylfuran-2-yl)-4-(4-methylphenyl)pyridine-3-carbonitrile], the pEC50 is 5.26. This pEC50 lies 0.83 log units lower than the previous one.
The same measure, in the same setting: under `Cc1cc(-c2cc(-c3ccc(Cl)cc3)nc(N)c2C#N)co1` [2-azanyl-6-(4-chlorophenyl)-4-(5-methylfuran-3-yl)pyridine-3-carbonitrile] stands 5.31; under `COc1ccc(N2C(=O)C(Cl)=C(Oc3cccc(OC)c3)C2=O)cc1` [3-chloro-4-(3-methoxyphenoxy)-1-(4-methoxyphenyl)-1H-pyrrole-2,5-dione], 5.97; under `CNC(CC(=O)c1ccc([N+](=O)[O-])cc1)C(Cl)(Cl)Cl` (configuration not stated) [4,4,4-Trichloro-3-methylamino-1-(4-nitro-phenyl)-butan-1-one], 5.40.
The same measure, in the same setting: under `C=CS(=O)(=O)c1sc(Cl)c(N2CCOCC2)c1[N+](=O)[O-]` [4-(2-chloranyl-5-ethenylsulfonyl-4-nitro-thiophen-3-yl)morpholine] stands 5.45; under `COc1cc(/N=C2\SSNC2Cl)c(OC)cc1Cl` (configuration not stated) [4-chloro-N-(4-chloro-2,5-dimethoxyphenyl)-5-dithiazolidinimine], 5.24; under `O=[N+]([O-])c1c(NCCCO)cc(Sc2nc3ccccc3s2)c2nonc12` [MLS000520994], 6.59.
The same measure, in the same setting: under `CN(CCO)c1cc(Sc2nc3ccccc3s2)c2nonc2c1[N+](=O)[O-]` [MLS000520995] stands 6.14; under `CC(=O)OCCCNc1cc(Sc2nc3ccccc3s2)c2nonc2c1[N+](=O)[O-]` [MLS000521052], 6.77.
Consider `CC(=O)Nc1ccc(-n2cc(-c3ccccc3)[nH]c2=S)cc1` [MLS001001946], for which the pEC50 was 5.69.
`COc1ccccc1-n1c(-c2ccccc2)c[nH]c1=S` [MLS001007615] gave a pEC50 of 5.91.
Still for that read-out and setting: under `COc1ccccc1NC1=C(NC(C)=O)C(=O)c2ccccc2C1=O` [N-[3-(2-methoxyanilino)-1,4-dioxonaphthalen-2-yl]acetamide] stands 5.74.
Still for that read-out and setting: under `O=C(Nc1nnc(COc2ccc(Cl)cc2)s1)c1ccco1` [N-[5-[(4-chloranylphenoxy)methyl]-1,3,4-thiadiazol-2-yl]furan-2-carboxamide] stands 5.51; under `Cc1cc2nn(-c3cccc4ccccc34)nc2cc1N` [SMR000076237], 5.82.
Same read-out and setting: under `S=c1[nH]cc(-c2ccccc2)n1-c1ccccc1` [SMR000196363] stands 5.52; under `CCN1C(=O)/C(=C\C=C2/C=CC=CN2CC)SC1=S` [SMR000225150], 5.63.
Regarding `Oc1ccc(NCc2ccccc2OCc2ccccc2)cc1` [SMR000231540], the pEC50 is 5.09.

The same experiment, now with this note: inactive by the depositor's call.
`Cc1ccc(-c2cc(-c3ccc(F)cc3)c(C#N)c(N)n2)o1` had a pEC50 of 4.70.
As for `CCN(CC)c1ccc(NC(=O)c2ccccc2Br)cc1S(=O)(=O)Nc1ccccc1OC`, the pEC50 is 4.97.
On the same count and under the same terms, under `O=C1C(=Cc2ccco2)NC(=S)N1c1ccccc1` [(5E)-5-(furan-2-ylmethylidene)-3-phenyl-2-sulfanylideneimidazolidin-4-one] stands 4.76.
Same read-out and setting: under `Clc1nc(NCc2cccnc2)nc(N2CCOCC2)n1` [MLS000121154] stands 4.70; under `COc1ccc(CCNC(=O)c2ccc3nc(-c4ccco4)c(-c4ccco4)nc3c2)cc1OC` [N-[2-(3,4-dimethoxyphenyl)ethyl]-2,3-di-2-furylquinoxaline-6-carboxamide], 4.81.
Same read-out and setting: under `CCN(CC)c1ccc(NC(=O)c2ccccc2F)cc1S(=O)(=O)Nc1ccccc1OC` [SMR000241522] stands 4.59.

These data come from BindingDB's records for doi:10.7270/Q2HQ3XCR (Nmmlsc, 2009).
